{
  "source": "patent US20020136785A1",
  "about": "“Ginseng berry extracts and pharmaceutical compositions from ginseng berry for the treatment of type 2 diabetes and obesity” (priority 2000, published 2002)",
  "key": {"[1]": {"system": "cultured bovine adrenal chromaffin cells", "conditions": "cultured bovine adrenal chromaffin cells (Kudo et al., 1998); cited from earlier work"}, "[2]": {"conditions": "Odani et al., 1983; cited from earlier work"}, "[3]": {"conditions": "Karikura et al., 1991; cited from earlier work"}, "[4]": {"target": "T1, nuclear glucocorticoid receptor (Homo sapiens, UniProt P04150)", "T1 sequence (P04150 1-777)": "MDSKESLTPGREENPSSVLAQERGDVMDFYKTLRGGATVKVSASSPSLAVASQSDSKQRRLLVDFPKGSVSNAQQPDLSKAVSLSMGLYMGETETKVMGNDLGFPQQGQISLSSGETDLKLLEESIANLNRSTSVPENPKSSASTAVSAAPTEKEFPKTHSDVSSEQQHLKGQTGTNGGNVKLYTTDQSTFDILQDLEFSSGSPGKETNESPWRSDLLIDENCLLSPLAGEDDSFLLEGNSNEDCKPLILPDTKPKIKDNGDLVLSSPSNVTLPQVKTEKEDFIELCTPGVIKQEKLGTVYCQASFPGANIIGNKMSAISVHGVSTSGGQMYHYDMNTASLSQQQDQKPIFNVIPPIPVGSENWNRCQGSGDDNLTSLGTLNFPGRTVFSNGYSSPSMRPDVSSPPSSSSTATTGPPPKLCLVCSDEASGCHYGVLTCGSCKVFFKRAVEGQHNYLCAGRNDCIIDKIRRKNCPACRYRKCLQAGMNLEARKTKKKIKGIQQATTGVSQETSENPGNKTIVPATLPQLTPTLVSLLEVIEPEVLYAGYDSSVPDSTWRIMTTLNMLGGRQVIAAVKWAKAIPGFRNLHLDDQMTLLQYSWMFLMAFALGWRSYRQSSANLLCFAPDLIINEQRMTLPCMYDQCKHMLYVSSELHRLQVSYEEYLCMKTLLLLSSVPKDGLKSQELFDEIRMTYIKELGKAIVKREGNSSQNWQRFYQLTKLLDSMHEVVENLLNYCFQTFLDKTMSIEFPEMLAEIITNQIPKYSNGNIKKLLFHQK", "conditions": "Lee et al., 1997; Chung et al., 1998; cited from earlier work"}, "[5]": {"conditions": "Hasegawa et al., 1995; cited from earlier work"}, "B16-BL6 melanoma cells": {"system": "B16-BL6 melanoma cells", "conditions": "B16-BL6 melanoma cells (Wakabayashi et al., 1998); cited from earlier work"}, "[6]": {"system": "streptozotocin-induced diabetic rats", "conditions": "streptozotocin-induced diabetic rats (Yokozawa et al., 1985); cited from earlier work"}, "albumin mRNA": {"system": "albumin mRNA", "conditions": "streptozotocin-induced diabetic rats (Yokozawa et al., 1996); cited from earlier work"}, "[7]": {"system": "hepatic tissue of streptozotocin-induced diabetic rats", "conditions": "streptozotocin-induced diabetic rats (Yokozawa et al., 1991); cited from earlier work"}, "[8]": {"system": "lean littermates (+/?) of C57BL/6J ob/ob mice", "assay": "Fasting blood glucose level in lean littermates of ob/ob mice", "format": "in vivo", "conditions": "after treatment with ginsenoside Re", "text": "(§1) Male C57BL/6J ob/ob mice and their lean littermates (+/?) were obtained from Jackson Laboratory (Bar Harbor, Me.). In this obese, insulin-resistant mouse model, obesity is due to a mutation in the obese gene that encodes for leptin. […] The heterozygous mice are lean and normoglycemic. It is believed that the development of hyperglycemia in the ob/ob mouse is a consequence of epistatic interaction of the obesity mutation with diabetes-susceptibility genes. Adult animals at 10-18 weeks of age were used. Mice were housed in environmentally controlled conditions with a 12-h light/dark cycle and had free access to standard rodent pellet food, except when fasted before some experiments.\n(§2) Animals were treated with Panax ginseng berry extract, Panax quinquefolius berry extract, ginsenoside Re or a polysaccharides fraction from Panax quinquefolius and the fasting blood glucose levels were measured. Fasting blood glucose levels were measured after animals were fasted for 4 hr (starting from 9:00AM), on Day 0 (before treatment), Day 5 (during treatment), and Day 12 (last day of treatment). Blood glucose levels were determined in tail blood samples at 1:00PM using a Glucose Analyzer (Hemocue AB, Angelholm, Sweden)."}, "C57BL/6J ob/ob mice": {"system": "C57BL/6J ob/ob mice", "assay": "Fasting blood glucose level in ob/ob mice", "format": "in vivo", "conditions": "20 mg/kg daily IP", "text": "as §1, §2"}, "lean mice": {"system": "lean mice", "assay": "Intraperitoneal glucose tolerance test (IPGTT) in lean mice", "format": "in vivo", "conditions": "20 mg/kg, 12 days", "experimental": "(§3) Animals were treated with Panax ginseng berry extract, Panax quinquefolius berry extract, ginsenoside Re, or a polysaccharide fraction from Panax quinquefolius . IPGTT was performed on Day 0 and Day 12. On the days of the test, animals were fasted for 4 hr (starting from 9:00AM) followed by an IP administration of glucose (2 g/kg). Blood glucose levels were determined in tail blood samples at 0 (prior to glucose administration), and 30, 60 and 120 min after glucose administration."}, "[9]": {"assay": "Body weight of ob/ob mice", "format": "in vivo", "experimental": "The average body weight of adult ob/ob or db/db mice is almost twice that of their lean littermates. Animals were treated with Panax ginseng berry extract, Panax quinquefolius berry extract, ginsenoside Re, or a polysaccharide fraction from Panax quinquefolius and the body weights were determined."}, "ob/ob mice": {"system": "ob/ob mice", "assay": "Intraperitoneal glucose tolerance test (IPGTT) in ob/ob mice", "format": "in vivo", "conditions": "20 mg/kg, 12 days, compared to vehicle-treated ob/ob mice", "experimental": "as §3"}},
  "data": [
    {"compound": "CC(C)=CCC[C@@](C)(O)[C@H]1CC[C@]2(C)[C@@H]1[C@H](O)C[C@@H]1[C@@]3(C)CC[C@H](O)C(C)(C)[C@@H]3[C@@H](O[C@@H]3O[C@H](CO)[C@@H](O)[C@H](O)[C@H]3O[C@@H]3O[C@@H](C)[C@H](O)[C@@H](O)[C@H]3O)C[C@]12C", "note": "[20(R) ginsenoside Rg2]", "values": [
      {"measurement": "acetylcholine-evoked secretion of catecholamines", "setting": "[1]", "value": "inhibit"}
    ]},
    {"compound": "CC(C)=CCCC(C)(O)C1CCC2(C)C1C(O)CC1C3(C)CCC(O)C(C)(C)C3C(OC3OC(CO)C(O)C(O)C3OC3OC(C)C(O)C(O)C3O)CC12C", "note": "[20(S) ginsenoside Rg2]", "values": [
      {"measurement": "acetylcholine-evoked secretion of catecholamines", "setting": "[1]", "value": "inhibit"},
      {"measurement": "inhibitory effect compared with the other C-20 isomer", "setting": "[1]", "value": "greater inhibitory effect"}
    ]},
    {"compound": "CC(C)=CCC[C@](C)(O[C@@H]1O[C@H](CO[C@@H]2O[C@H](CO)[C@@H](O)[C@H](O)[C@H]2O)[C@@H](O)[C@H](O)[C@H]1O)[C@H]1CC[C@]2(C)[C@@H]1[C@H](O)C[C@@H]1[C@@]3(C)CC[C@H](O[C@@H]4O[C@H](CO)[C@@H](O)[C@H](O)[C@H]4O[C@@H]4O[C@H](CO)[C@@H](O)[C@H](O)[C@H]4O)C(C)(C)[C@@H]3CC[C@]12C", "note": "[Rb1]", "values": [
      {"measurement": "absorption after ingestion", "setting": "[2]", "value": "poorly absorbed"},
      {"measurement": "metabolism by intestinal flora", "setting": "[3]", "value": "hydrolyzed to compound K"}
    ]},
    {"compound": "CC(C)=CCC[C@](C)(O[C@@H]1O[C@H](CO)[C@@H](O)[C@H](O)[C@H]1O)[C@H]1CC[C@]2(C)[C@@H]1[C@H](O)C[C@@H]1[C@@]3(C)CC[C@H](O)C(C)(C)[C@@H]3[C@@H](O[C@@H]3O[C@H](CO)[C@@H](O)[C@H](O)[C@H]3O)C[C@]12C", "note": "[Rg1]", "values": [
      {"measurement": "absorption after ingestion", "setting": "[2]", "value": "poorly absorbed"},
      {"measurement": "ligand of the nuclear glucocorticoid receptor", "setting": "[4]", "value": "functional ligand"}
    ]},
    {"compound": "CC(C)=CCC[C@](C)(O[C@@H]1O[C@H](CO)[C@@H](O)[C@H](O)[C@H]1O)[C@H]1CC[C@]2(C)[C@@H]1[C@H](O)C[C@@H]1[C@@]3(C)CC[C@H](O)C(C)(C)[C@@H]3CC[C@]12C", "note": "[compound K]", "values": [
      {"measurement": "cytotoxicity of antineoplastic drugs", "setting": "[5]", "value": "increase the cytotoxicity"},
      {"measurement": "apoptosis", "setting": "B16-BL6 melanoma cells", "value": "induce apoptosis"}
    ]},
    {"compound": "CC(C)=CCC[C@](C)(O[C@@H]1O[C@H](CO[C@@H]2OC[C@H](O)[C@H](O)[C@H]2O)[C@@H](O)[C@H](O)[C@H]1O)[C@H]1CC[C@]2(C)[C@@H]1[C@H](O)C[C@@H]1[C@@]3(C)CC[C@H](O[C@@H]4O[C@H](CO)[C@@H](O)[C@H](O)[C@H]4O[C@@H]4O[C@H](CO)[C@@H](O)[C@H](O)[C@H]4O)C(C)(C)[C@@H]3CC[C@]12C", "note": "[ginsenoside Rb2]", "values": [
      {"measurement": "blood glucose levels", "setting": "[6]", "value": "significant decrease"},
      {"measurement": "albumin mRNA in the liver", "setting": "albumin mRNA", "value": "increased albumin mRNA"},
      {"measurement": "ATP levels in hepatic tissue", "setting": "[7]", "value": "increased ATP levels"}
    ]},
    {"compound": "CC(C)=CCC[C@](C)(O[C@@H]1O[C@H](CO)[C@@H](O)[C@H](O)[C@H]1O)[C@H]1CC[C@]2(C)[C@@H]1[C@H](O)C[C@@H]1[C@@]3(C)CC[C@H](O)C(C)(C)[C@@H]3[C@@H](O[C@@H]3O[C@H](CO)[C@@H](O)[C@H](O)[C@H]3O[C@@H]3O[C@@H](C)[C@H](O)[C@@H](O)[C@H]3O)C[C@]12C", "note": "[ginsenoside Re]", "values": [
      {"measurement": "change of fasting blood glucose", "setting": "[8]", "value": "did not change sizably"},
      {"measurement": "fasting blood glucose", "setting": "C57BL/6J ob/ob mice; Day 5, 4 hr fast", "value": "188 ± 9.2", "unit": "mg/dL"},
      {"measurement": "fasting blood glucose", "setting": "C57BL/6J ob/ob mice; Day 12, 4 hr fast", "value": "180 ± 10.8", "unit": "mg/dL"},
      {"measurement": "glucose tolerance, IPGTT", "setting": "lean mice", "value": "not statistically affected"},
      {"measurement": "body weight", "setting": "[9]; 20 mg/kg group, Day 0", "value": "53.1 ± 1.4", "unit": "g"},
      {"measurement": "body weight", "setting": "[9]; 20 mg/kg, Day 5", "value": "52.9 ± 1.5", "unit": "g"},
      {"measurement": "body weight", "setting": "[9]; 20 mg/kg, Day 12", "value": "54.7 ± 1.7", "unit": "g"},
      {"measurement": "blood glucose levels at 60 min and 120 min following glucose administration, IPGTT", "setting": "ob/ob mice", "value": "significantly decreased"}
    ]}
  ]
}
